Where a name gives a salt, the structure may show the parent alone.
Assays:
[1] = system: sporadic PD patient fibroblasts; experiment: Cellular ATP levels (ATPlite, normalised to CyQUANT DNA content) in sporadic PD patient fibroblasts; type: cell-based; conditions: Homo sapiens, Fibroblast, 24 h; for activity at 0.3 µM: read-out: Cellular ATP levels Top (% of vehicle treated); for activity at 60 pM: read-out: Cellular ATP levels Bottom (% of vehicle treated)
Description: (§1) Fibroblasts were cultured in DMEM (Invitrogen) and routinely subcultured every 3-5 days using trypsin to dissociate them.
The ATP protocol is generally as described in Mortiboys et al, “Mitochondrial function and morphology are impaired in parkin-mutant fibroblasts”, Ann Neurol. 2008 November; 64(5):555-65. Briefly, fibroblasts were cultured as and plated into white 384 well plates with 5000 cells per well in 50 μl of media volume. The plates are left overnight in an incubator to allow the fibroblasts to adhere to the plate surface. The following morning the Glucose based medium is replaced with 25 μl of Galactose based medium. The compounds are added to the plates using a ECHO 550 liquid handling system. The wells were dosed to provide an 8-point concentration range of 0.06 nM-300 nM of compound. After dosing the wells are topped up with a further 25 μl of Galactose based medium and then left in an incubator for 24 hours. Following this incubation the medium is removed from the plate and the wells are washed twice with sterile PBS. The wells are filled with 25 μl of Sterile PBS followed by 12.5 μl of Lysis solution from the ATPlite™ Luminescence ATP detection assay system (Perkin Elmer), including 16 cell free wells to use as blank controls. The plate is then placed on a rotary shaker for 5 mins at 700 rpm. Following the shaking 12.5 μl of ATP substrate solution (Perkin Elmer) is added to each well and a further 5 min of shaking. The plate is then placed in darkness for 10 minutes prior to reading. Using a PHERAStar® plate reader, luminescence intensity is recorded. Following the ATP assay the plates are immediately assayed for DNA content in a CyQUANT® assay.
Immediately following The ATP assay DNA content is assessed with the CyQUANT® NF Cell Proliferation Assay Kit (ThermoFisher). CyQUANT® buffer is prepared immediately before the assay and is comprised of 1 ul CyQUANT® dye per ml×1 HBSS solution. 12.5 ul of CyQUANT® buffer is added to each well. Plate left in incubator for 1 hour then read on a PHERAStar® Plate reader with excitation at 497 nm and emission at 520 nm. ATP Quantification for each well is determined using the following formula: […]
(§2) After the assays had been repeated in triplicate per line and compound the data was then inputted into Graph pad Prism 7 software suite where a dose response curve is generated using the default “[Agonist] vs response (three parameters)” equation.
(§3) From this EC50 values, lowest response and maximal response were taken and used to calculate the Geometric mean between the 5 different lines assessed.
Cellular ATP levels were measured in fibroblasts from 6 (Table 3) or 3 (Table 4) patients with sporadic Parkinson's disease when treated with Compounds of the invention or Comparator compounds. The results are shown in Tables 3 and 4, where “Bottom”=max response with lowest dose of compound (0.06 nM) and “top”=max response with highest dose of compound (300 nM).

[2] = system: sporadic PD patient fibroblasts; experiment: Mitochondrial membrane potential (MMP, TMRM) in sporadic PD patient fibroblasts; type: cell-based; conditions: Homo sapiens, Fibroblast, 24 h; for activity at 0.3 µM: read-out: MMP Top (% of vehicle treated); for activity at 60 pM: read-out: MMP Bottom (% of vehicle treated)
Description: as §1
Fibroblasts were cultured and plated into a Griener black 384 pClear® plate at 10000 cells per well in 50 μl of media volume. The plates are left overnight in an incubator to allow the fibroblasts to adhere to the plate surface. The following morning the Glucose based medium is replaced with 25 μl of Galactose based media. The plates were then dosed with the compounds using an ECHO® 550 liquid handling system. The wells were dosed to provide an 8-point concentration range of 0.06 nM-300 nM of compound. After dosing the wells are topped up with a further 25 μl of Galactose based medium and then left in an incubator for 24 hours. After 24 hours, the medium is removed from the wells and replaced with 25 ul phenol free Minimal essential medium with 100 nM TMRM (Sigma) and 10 μM Hoechst Stain (Sigma). The plate is returned to the incubator for another hour after which the stain medium is removed and replaced with 25 ul Phenol free MEM. The plate is then imaged using an IN Cell high content microscope (GE Healthcare) with 10 fields of view per well in 2 channels, Cy3 excitation 542 nm, emission 604-64 nm; and the DAPI excitation 350 nm, emission 450-55 nm at 37° C. with CO2. After imaging the plate is disposed of and the images are Data mined using the INCell developer Toolkit (GE Healthcare).
as §2, §3
The mitochondrial membrane potential was measured in fibroblasts from 6 (Table 1) or 3 (Table 2) patients with sporadic Parkinson's disease when treated with Compounds of the invention or Comparator compounds. The results are shown in Tables 1 and 2, where “Bottom”=max response with lowest dose of compound (0.06 nM) and “top”=max response with highest dose of compound (300 nM).

[3] = 3 sporadic PD patient fibroblasts, read-out: Cellular ATP levels EC50
[4] = max response with highest dose (300 nM), 3 sporadic PD patient fibroblasts
[5] = max response with lowest dose (0.06 nM), 3 sporadic PD patient fibroblasts
[6] = 3 sporadic PD patient fibroblasts, read-out: MMP EC50
[7] = read-out: Cellular ATP levels EC50 (nM)
[8] = 6 sporadic PD patient fibroblasts, read-out: Cellular ATP levels EC50
[9] = max response with highest dose (300 nM), 6 sporadic PD patient fibroblasts
[10] = max response with lowest dose (0.06 nM), 6 sporadic PD patient fibroblasts
[11] = 6 sporadic PD patient fibroblasts, read-out: MMP EC50

Row | Compound | activity at 60 pM [1] | EC50 [1, 7] | activity at 0.3 µM [1] | activity at 60 pM [2] | EC50 ([2]; read-out: MMP EC50 (nM)) | activity at 0.3 µM [2] | also measured
1 | C[C@H](CCC(=O)N1CCS(=O)(=O)CC1)[C@H]1CCC2C3C(CC[C@@]21C)[C@@]1(C)CC(F)(F)[C@H](O)C[C@H]1C[C@@H]3O (stereo partly drawn) [Compound 30, N-(2,2-difluoro-3β,7β-dihydroxy-5β-cholan-24-oyl)-thiomorpholine-dioxide] | – | – | – | – | – | – | EC50 [1, 3]: 4.2 nM; activity at 0.3 µM [1, 4]: 115%; activity at 60 pM [1, 5]: 96.7%; EC50 [2, 6]: 21 nM; activity at 0.3 µM [2, 4]: 156%; activity at 60 pM [2, 5]: 98.4%
2 | C[C@H](CCC(=O)NCCS(C)(=O)=O)[C@H]1CC[C@H]2[C@@H]3[C@@H](O)C[C@@H]4C[C@@H](O)C(F)(F)C[C@]4(C)[C@H]3CC[C@]12C [Compound 27, N-(2,2-difluoro-3β,7β-dihydroxy-5β-cholan-24-oyl) 2-aminoethyl methyl sulfone] | – | – | – | – | – | – | EC50 [1, 3]: 16.6 nM; activity at 0.3 µM [1, 4]: 114%; activity at 60 pM [1, 5]: 101%; EC50 [2, 6]: 171 nM; activity at 0.3 µM [2, 4]: 159%; activity at 60 pM [2, 5]: 103%
3 | C[C@H](CCC(=O)NCC(=O)O)[C@H]1CCC2C3C(CC[C@@]21C)[C@@]1(C)CC(F)(F)[C@H](O)C[C@H]1C[C@@H]3O (stereo partly drawn) [Compound 17, Sodium N-(2,2-difluoro-3β,7β-dihydroxy-5β-cholan-24-amide)-methylcarboxylic acid] | 101% | 17.2 nM | 132% | 88.9% | 128 nM | 152% | –
4 | C[C@H](CCC(=O)NC1CCCS(=O)(=O)C1)[C@H]1CC[C@H]2[C@@H]3[C@@H](O)C[C@@H]4C[C@@H](O)C(F)(F)C[C@]4(C)[C@H]3CC[C@]12C (stereo partly drawn) [Compound 31, N-(2,2-difluoro-3β,7β-dihydroxy-5β-cholan-24-oyl) 1,1-dioxidotetrahydro-2H-thiopyran-3-ylamine] | – | – | – | – | – | – | EC50 [1, 3]: 13.3 nM; activity at 0.3 µM [1, 4]: 133%; activity at 60 pM [1, 5]: 108%; EC50 [2, 6]: 5.5 nM; activity at 0.3 µM [2, 4]: 151%; activity at 60 pM [2, 5]: 99.6%
5 | C[C@H](CCC(=O)N(C)CCS(=O)(=O)O)[C@H]1CCC2C3C(CC[C@@]21C)[C@@]1(C)CC(F)(F)[C@H](O)C[C@H]1C[C@@H]3O (stereo partly drawn) [Compound 19, Sodium N-(methyl)-N-(2,2-difluoro-3β,7β-dihydroxy-5β-cholan-24-amide) ethylsulfonic acid] | 98.8% | 8.9 nM | 122% | 95.9% | 104 nM | 143% | –
6 | C[C@H](CCC(=O)O)[C@H]1CC[C@H]2[C@@H]3C(=O)C[C@@H]4CC(=O)C(F)=C[C@]4(C)[C@H]3CC[C@]12C [Compound G, 2-fluoro-3,7-dioxo-5β-chol-1-enic acid, reference compound] | – | – | – | – | – | – | EC50 [1, 8]: 58.4 nM; activity at 0.3 µM [1, 9]: 92.7%; activity at 60 pM [1, 10]: 83.3%; EC50 [2, 11]: 282 nM; activity at 0.3 µM [2, 9]: 123%; activity at 60 pM [2, 10]: 103%
7 | C[C@H](CCC(=O)NCCCS(=O)(=O)O)[C@H]1CC[C@H]2[C@@H]3[C@@H](O)C[C@@H]4C[C@@H](O)C(F)(F)C[C@]4(C)[C@H]3CC[C@]12C [Compound 20, Sodium 3-(2,2-difluoro-3β,7β-dihydroxy-5β-cholan-24-oyl) amino-propanesulfonate] | 102% | 34.7 nM | 122% | 99.8% | 17.7 nM | 147% | –
8 | C[C@H](CCC(=O)NCCOS(=O)(=O)O)[C@H]1CC[C@H]2[C@@H]3[C@@H](O)C[C@@H]4C[C@@H](O)C(F)(F)C[C@]4(C)[C@H]3CC[C@]12C [Compound 22, Sodium N-(2,2-difluoro-3β,7β-dihydroxy-5β-cholan-24-oyl)-2-aminoethyl sulfate] | 95.9% | 6.2 nM | 116% | 99.3% | 45.4 nM | 146% | –
9 | C[C@H](CCC(=O)O)[C@H]1CC[C@H]2[C@@H]3[C@@H](O)C[C@@H]4C[C@H](O)C(F)(F)C[C@]4(C)[C@H]3CC[C@]12C [Compound 9, 2,2-difluoro-3α,7β-dihydroxy-5β-cholanic acid] | 99% | 21.3 nM | 103% | 110% | 2.19 nM | 112% | –
10 | C[C@H](CCC(=O)N1CCC[C@H](C(=O)O)C1)[C@H]1CC[C@H]2[C@@H]3[C@@H](O)C[C@@H]4C[C@@H](O)C(F)(F)C[C@]4(C)[C@H]3CC[C@]12C [Compound 14, Sodium 1-(2,2-difluoro-3β,7β-dihydroxy-5β-cholan-24-oyl)-piperidine-3-carboxylate] | 107% | 1.3 nM | 127% | 94.3% | 18.9 nM | 167% | –
11 | C[C@H](CCC(=O)O)[C@H]1CC[C@H]2[C@@H]3[C@@H](O)C[C@@H]4C[C@@H](O)C(F)=C[C@]4(C)[C@H]3CC[C@]12C [Compound F, 2-fluoro-3β,7β-dihydroxy-5β-chol-1-enic acid, reference compound] | – | – | – | – | – | – | EC50 [1, 8]: 1.91 nM; activity at 0.3 µM [1, 9]: 112%; activity at 60 pM [1, 10]: 99.9%; EC50 [2, 11]: 0.674 nM; activity at 0.3 µM [2, 9]: 108%; activity at 60 pM [2, 10]: 110%
12 | C[C@H](CCC(=O)O)[C@H]1CC[C@H]2[C@@H]3C(=O)C[C@@H]4CC(=O)C(F)(F)C[C@]4(C)[C@H]3CC[C@]12C [Compound E, 2,2-difluoro-3,7-dioxo-5β-cholanic acid, reference compound] | – | – | – | – | – | – | EC50 [1, 8]: 18.8 nM; activity at 0.3 µM [1, 9]: 136%; activity at 60 pM [1, 10]: 81.6%; EC50 [2, 11]: 23.3 nM; activity at 0.3 µM [2, 9]: 112%; activity at 60 pM [2, 10]: 105%

Reference: patent US20220073557A1, “FLUORINATED BILE ACIDS” (NZP UK LIMITED, priority 2018, published 2022)
